Measurements reported in patent US20240366605A1, “USE OF QUINAZOLINONE COMPOUND FOR THE TREATMENT OF CANCER” (Hoffmann-La Roche Inc., priority 2021, published 2024).

Assays:
[1] = system: intracranially implanted A375 tumours (BRAF V600E); test: Intracranial A375 luc melanoma model (brain metastatic setting); type: in vivo, mice
Excerpt: (§1) All animal experiments were approved by and performed according to the guidelines of the Institutional Animal Care Committee of the Vall d'Hebron Research Institute in agreement with the European Union and national directives. Female and male NOD scid gamma (NSG) mice of 4 to 5-week-old were purchased from Charles River.
For intracranial models, 5×10^5 A375 luc cells were stereotactically inoculated into the corpus striatum of the right brain hemisphere (1 mm anterior and 1.8 mm lateral to the […]; 2.5 mm intraparenchymal) of mice. Brain implanted tumors were monitored through regular Bioluminescence (BLI) signal detection and a relapse was determined upon observation of a progressive gradual increase of BLI signal.
The A375 cell line presenting BRAF V600E was used as melanoma model. The cell line was stably transduced with a luciferase expressing vector to facilitate tumor size monitoring. […] Brain implanted tumors were monitored through regular Bioluminescence (BLI) signal detection and a relapse was determined upon observation of a progressive gradual increase of BLI signal. […]
The A375 cell line presenting BRAF V600E was used as melanoma model. […] Brain implanted tumors were monitored through regular Bioluminescence (BLI) signal detection and a relapse was determined upon observation of a progressive gradual increase of BLI signal (total flux (p/s) was used to estimate tumour size). […]

[2] = system: subcutaneously implanted A375 tumours (BRAF V600E); test: Subcutaneous A375 luc melanoma model (peripheral disease); type: in vivo, mice
Excerpt: as §1
For subcutaneous model, 5×10^6 A375 melanoma cells were subcutaneously injected into one flank of mice. Tumour growth was monitored with a Calipher.
The A375 cell line presenting BRAF V600E was used as melanoma model. The cell line was stably transduced with a luciferase expressing vector to facilitate tumor size monitoring. A375 luc were implanted subcutaneously to mimic peripheral disease and then randomized when tumors reached 100-300 mm^3. (10 mice/group). The mice were administered either Vehicle, Compound Ia 10 mg/kg (QD PO) or dabrafenib 100 mg/kg (QD PO). In a fourth treatment cohort, dabrafenib 100 mg/kg (QD PO) was administered until tumor relapse occurred, at which point dabrafenib treatment was discontinued and mice were instead treated with Compound Ia 10 mg/kg (QD PO).

[3] = system: primary tumors from brain metastatic lesions progressing on BRAFi monotherapy or combination therapy with a MEKi; test: In vivo testing in primary tumors from brain metastatic lesions progressing on BRAFi or BRAFi/MEKi
[4] = relapse under dabrafenib 100 mg/kg QD PO, caliper

Structure (SMILES): Cn1cnc2ccc(Oc3c(F)ccc(NS(=O)(=O)N4CC[C@@H](F)C4)c3C#N)cc2c1=O [Compound Ia, (3R)—N-[2-cyano-4-fluoro-3-(3-methyl-4-oxo-quinazolin-6-yl)oxy-phenyl]-3-fluoro-pyrrolidine-1-sulfonamide]
- responses, brain metastatic lesions ([1]; brain compartment): long lasting responses
- responses upon relapse to available BRAFi and BRAFi/MEKi co-treatment ([1]; switch to Compound Ia after relapse, brain lesions): dramatic responses
- responses, peripheral lesions ([2]; peripheral compartment): long lasting responses
- responses upon relapse to available BRAFi ([2]; switch to Compound Ia after relapse, peripheral lesions): dramatic responses
- antitumor activity [3]: potent antitumor activity

Structure (SMILES): CC(C)(C)c1nc(-c2cccc(NS(=O)(=O)c3c(F)cccc3F)c2F)c(-c2ccnc(N)n2)s1 [dabrafenib, reference compound]
- Tumour size in relapse (mean value) [2, 4]: 558 mm^3
- Tumour size in relapse (range) [2, 4]: 300-700 mm3
